The target of assay [1] is human recombinant FGFR2 catalytic structural domain protein (amino acids 400-821) (Homo sapiens (Human), UniProt P21802). In words: FGFR2 activity inhibition test (HTRF kinase assay). The following applies: 50 μM ATP. Format: biochemical.
Assay [2] deals with human recombinant FGFR3 catalytic structural domain protein (amino acids 399-806) (Homo sapiens (Human), UniProt P22607). In words: FGFR3 activity inhibition test (HTRF kinase assay). Format: biochemical. The following applies: 90 μM ATP.

These results are taken from US10752631B2, “Heterocyclic compounds as FGFR inhibitors” (GUANGZHOU INNOCARE PHARMA TECH CO., LTD., priority 2016, dated 2020).

Molecules are shown by their SMILES.

Chain of human recombinant FGFR3 catalytic structural domain protein (amino acids 399-806) (P22607 399-806): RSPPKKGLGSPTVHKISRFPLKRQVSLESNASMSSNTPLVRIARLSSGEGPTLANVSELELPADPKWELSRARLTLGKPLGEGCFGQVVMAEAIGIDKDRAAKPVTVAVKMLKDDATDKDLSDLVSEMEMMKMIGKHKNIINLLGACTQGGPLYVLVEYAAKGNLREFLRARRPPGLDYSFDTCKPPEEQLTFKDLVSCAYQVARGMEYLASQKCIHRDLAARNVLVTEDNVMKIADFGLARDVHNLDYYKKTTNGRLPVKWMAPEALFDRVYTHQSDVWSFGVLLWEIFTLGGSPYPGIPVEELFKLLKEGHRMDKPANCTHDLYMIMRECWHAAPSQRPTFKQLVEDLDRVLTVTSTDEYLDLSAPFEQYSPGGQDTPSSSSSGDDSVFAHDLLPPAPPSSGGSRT
Chain of human recombinant FGFR2 catalytic structural domain protein (amino acids 400-821) (P21802 400-821): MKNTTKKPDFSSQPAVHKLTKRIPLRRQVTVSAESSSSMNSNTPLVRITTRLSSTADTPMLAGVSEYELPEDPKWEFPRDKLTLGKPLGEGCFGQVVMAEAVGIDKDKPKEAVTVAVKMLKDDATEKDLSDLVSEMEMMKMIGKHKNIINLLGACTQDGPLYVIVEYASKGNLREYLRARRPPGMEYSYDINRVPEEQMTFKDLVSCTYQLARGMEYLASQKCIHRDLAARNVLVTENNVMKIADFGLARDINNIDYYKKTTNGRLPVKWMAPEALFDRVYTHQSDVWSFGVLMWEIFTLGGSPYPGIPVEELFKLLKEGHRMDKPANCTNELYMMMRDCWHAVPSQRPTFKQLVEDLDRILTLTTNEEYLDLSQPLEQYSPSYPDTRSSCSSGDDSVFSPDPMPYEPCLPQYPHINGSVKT

On to `C#CC(=O)N1CC[C@@H](c2nc(C#Cc3cc(OC)cc(OC)c3)c3c(N)nccn23)C1` (stereo in doubt) [Compound 8, 1-((3,5-Dimethoxyphenyl)ethynyl)-3-(1-propynoylpyrrolidin-3-yl)imidazo[1,5-a]pyrazin-8-amine], for which the results for the IC50 in assay [1] and in assay [2] were below 50 nM and 50 to 500 nM, respectively.

For `CC#CC(=O)N1CC[C@@H](c2nc(C#Cc3cc(OC)cc(OC)c3)c3c(N)nccn23)C1` [Compound 5, (R)-1-((3,5-Dimethoxyphenyl)ethynyl)-3-(1-butan-2-ynoylpyrrolidin-3-yl)imidazo[1,5-a]pyrazin-8-amine], the IC50 in assay [1] and in assay [2] was below 50 nM throughout.

Regarding `C/C=C/C(=O)N1CC[C@@H](c2nc(C#Cc3cc(OC)cc(OC)c3)c3c(N)nccn23)C1` [Compound 7, (E)-1-((3,5-Dimethoxyphenyl)ethynyl)-3-(1-butan-2-enoylpyrrolidin-3-yl)imidazo[1,5-a]pyrazin-8-amine], the IC50 in assay [1] and in assay [2] was below 50 nM throughout.

In the case of `CC#CC(=O)N1CCC(c2nc(C#Cc3cc(OC)cc(OC)c3)c3c(N)nccn23)C1` (centres unmarked) [Compound 9, 1-((3,5-Dimethoxyphenyl)ethynyl)-3-(1-butan-2-ynoylpyrolidin-3-yl)imidazo[1,5-a]pyrazin-8-amine], the results for the IC50 in assay [1] and in assay [2] were below 50 nM and 50 to 500 nM, respectively.

Consider `COc1cc(C#Cc2nc(C3CCN(C(=O)/C=C/CN(C)C)C3)n3ccnc(N)c23)cc(OC)c1` (centres unmarked) [Compound 10], for which the IC50 in assay [1] and in assay [2] was below 50 nM each time.

Take `C/C=C/C(=O)N1CC(c2nc(C#Cc3cc(OC)cc(OC)c3)c3c(N)nccn23)C1` [Compound 11, (E)-1-((3,5-Dimethoxyphenyl)ethynyl)-3-(1-but-2-enoylazacyclobutan-3-yl)imidazo[1,5-a]pyrazin-8-amine]: the IC50 in assay [1] and in assay [2] was 50 to 500 nM each time.

`CC#CC(=O)N1CC(c2nc(C#Cc3cc(OC)cc(OC)c3)c3c(N)nccn23)C1` [Compound 12, 1-((3,5-Dimethoxyphenyl)ethynyl)-3-(1-but-2-ynoylazacyclobutan-3-yl)imidazo[1,5-a]pyrazin-8-amine]: the IC50 in assay [1] and in assay [2] was 50 to 500 nM throughout.
